Literature values as cited in patent publication US20060189586A1, “Pharmaceutical compositions comprising active vitamin D compounds” (priority 2003, published 2006).

Settings: in vivo

| Hypercalcemic effect compared to calcitriol | Compound |
| --- | --- |
| reduced hypercalcemic effect | C=C1/C(=C/C=C2\CCC[C@]3(C)C([C@H](C)CC#CC(O)(C(F)(F)F)C(F)(F)F)=CC[C@@H]23)C[C@@H](O)C[C@@H]1O [Ro24-5531] |
| reduced hypercalcemic effect | C=C1/C(=C\C=C2/CCC[C@]3(C)C([C@H](C)CC#CC(C)(C)O)=CC[C@@H]23)C[C@@H](O)C[C@@H]1O [Ro23-7553] |
